Test results: US8778947B2 (Intermune, Inc., priority 2012, dated 2014)
Entries after “also recorded” stand apart in the source; their conditions may differ. Read-outs that look alike come from different tables or passages of the source.

Assays:
[1] = target: CYP1A2 (Homo sapiens, UniProt P05177); details: in vitro experiments; cited from earlier work
[2] = Ciprofloxacin-pirfenidone in vitro-in vivo extrapolation (IVIVE) simulations of pirfenidone AUC change; details: from in vitro and in vivo data coupled with IVIVE simulations
Text: In brief, the process involves combining in vitro knowledge regarding the properties of a potential inhibitor [IC50 values for various cytochrome P450 (CYP) enzymes] with the in vitro knowledge regarding the pathways of metabolism of a given substrate (fraction metabolized by various CYP enzymes).

[3] = Phase 1 open-label crossover study: safety (adverse events); type: in vivo, human (healthy subjects)
Text: The Safety population was defined as subjects who received any amount of pirfenidone or ciprofloxacin.

[4] = clinical; details: human, in vivo, po; for AUC(0-inf): AUC0-∞
Protocol: 750-mg tablets orally, as follows: • Day 2: 750 mg in the evening • Days 3-6: 750 mg twice a day (BID) • Day 7: 750 mg in the morning.
Both noncompartmental methods and a previously derived population PK (i.e., compartmental) model were used to analyze the plasma concentration-time data and characterize individual subject PK parameters.

[5] = cited from earlier work
[6] = Ratio of Day 6/7 (during ciprofloxacin dosing) to Day 1/2 (pre-ciprofloxacin dosing), N = 27
[7] = plasma, single 801 mg oral pirfenidone with food, Study Day 1/2 (Pre-Ciprofloxacin), N = 27
[8] = plasma, single 801 mg oral pirfenidone with food, Study Day 6/7 (During Ciprofloxacin 750 mg BID), N = 27

Sequence of CYP1A2 (P05177 whole entry): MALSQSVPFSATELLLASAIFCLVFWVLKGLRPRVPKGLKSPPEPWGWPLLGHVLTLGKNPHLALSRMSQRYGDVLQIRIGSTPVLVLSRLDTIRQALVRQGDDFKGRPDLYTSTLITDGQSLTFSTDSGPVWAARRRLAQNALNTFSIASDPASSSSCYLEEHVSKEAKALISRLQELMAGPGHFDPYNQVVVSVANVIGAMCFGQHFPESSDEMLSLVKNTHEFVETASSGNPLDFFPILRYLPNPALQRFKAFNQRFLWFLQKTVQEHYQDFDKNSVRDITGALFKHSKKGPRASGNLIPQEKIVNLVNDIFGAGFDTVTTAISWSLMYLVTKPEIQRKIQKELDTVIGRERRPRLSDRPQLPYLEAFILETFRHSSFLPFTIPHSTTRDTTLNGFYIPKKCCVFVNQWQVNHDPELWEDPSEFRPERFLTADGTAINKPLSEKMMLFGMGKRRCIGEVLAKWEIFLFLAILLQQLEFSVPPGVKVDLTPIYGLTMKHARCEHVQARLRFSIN

For O=C(O)c1ccc(=O)n(-c2ccccc2)c1 [5-Carboxy-Pirfenidone, 5-carboxy-pirfenidone], the “AUC0-∞ Geometric Mean Ratio (90% Confidence Interval)” value [6] was 0.96 (0.92, 1.00), the “Cmax Geometric Mean Ratio (90% Confidence Interval)” value [6] was 0.62 (0.57, 0.66) and the “AUC0-∞ Day 6/7 geometric mean lower than on Day 1/2” value (after 801 mg pirfenidone) was 7.7%. For the same molecule, the “Cmax lower with ciprofloxacin coadministration on Day 6/7 than Day 1/2” value (after 801 mg pirfenidone) was 40%, the “AUC0-∞, Geometric Mean” value [7] was 32600 ng·h/mL and the “AUC0-∞, Mean (SD)” value [7] was 30.9 (4.74) μg*hr/mL. The “AUC0-∞, Median” value [7] was 30300 ng·h/mL, the “Cmax, Geometric Mean” value [7] was 6500 ng/mL and the “Cmax, Mean (SD)” value [7] was 6.1 (1.44) μg/mL. For the same molecule, the “Cmax, Median” value [7] was 5700 ng/mL, the “T1/2 (apparent terminal elimination half-life), Geometric Mean” value [7] was 2.6 h and the “T1/2, Mean (SD)” value [7] was 2.7 (0.73) h. The “Tmax, Geometric Mean” value [7] was 2.2 h, the “Tmax, Mean (SD)” value [7] was 2.3 (0.6) h and the “Tmax, Median” value [7] was 2 h. The “AUC0-∞, Geometric Mean” value [8] was 30100 ng·h/mL, the “AUC0-∞, Mean (SD)” value [8] was 29.6 (4.52) μg*hr/mL and the “AUC0-∞, Median” value [8] was 29100 ng·h/mL. For the same molecule, the “Cmax, Geometric Mean” value [8] was 3800 ng/mL, the “Cmax, Mean (SD)” value [8] was 3.8 (0.8) μg/mL and the “Cmax, Median” value [8] was 3800 ng/mL. For the same molecule, the “T1/2 (apparent terminal elimination half-life), Geometric Mean” value [8] was 4 h, the “T1/2, Mean (SD)” value [8] was 4.2 (0.93) h and the “T1/2, Median” value [8] was 4 h. The “Tmax, Geometric Mean” value [8] was 2.1 h, the “Tmax, Mean (SD)” value [8] was 2 (0.76) h and the “Tmax, Median” value [8] was 2 h. For the same molecule, the “T1/2 (apparent terminal elimination half-life), Geometric Mean” value (plasma, single 801 mg oral pirfenidone with food, Study Day 6/7 (During Ciprofloxacin 750 mg BID), N = 27, listed as 5-carboxy-pirfenidone) was 4.0 h.

For Cc1ccc(=O)n(-c2ccccc2)c1 [Pirfenidone, 5-methyl-1-phenyl-2-(1H)-pyridone], the “CYP isoform metabolizing pirfenidone in vitro” value [1] is given as “primarily metabolized by CYP1A2; also recorded: predominantly carried out by CYP1A2”, the “T1/2, Min, Max” value (human, in vivo, po) is given as 2.8, 5.6 and the “Tmax, Min, Max” value (human, in vivo, po) is given as 1, 4.1. The “AUC0-∞, Min, Max” value (human, in vivo, po, 801 mg) was 30, 88.2, the “Cmax, Min, Max” value (human, in vivo, po, 801 mg) was 6.6, 14.4 and the “T1/2, Min, Max” value (human, in vivo, po, 801 mg) was 1.4, 3.6. The “Tmax, Min, Max” value (human, in vivo, po, 801 mg) was 1, 3, the “share of in vivo metabolism of pirfenidone for which CYP1A2 is responsible” value [2] was 70-80% and the “subjects whose strongest AE relationship was probably related to pirfenidone” value ([3]; as assessed by the investigator) was 6 subjects. The “subjects with pirfenidone-related AEs only on Day 6” value ([3]; coadministration with ciprofloxacin) was 5 subjects, the “subjects with AEs considered related to pirfenidone on Day 1” value ([3]; dosing with pirfenidone only) was “One” and the AUC(0-inf) ([4]; 801 mg, Geometric Mean) was 50800 ng·h/mL. It also gave an AUC(0-inf) ([4]; 801 mg, Mean (SD)) of 51900 ng·h/mL, an AUC(0-inf) ([4]; 801 mg, Median) of 53200 ng·h/mL and a Cmax ([4]; 801 mg, Geometric Mean) of 10700 ng/mL. It also gave a Cmax ([4]; 801 mg, Mean (SD)) of 10400 ng/mL, a Cmax ([4]; 801 mg, Median) of 10400 ng/mL and a half-life ([4]; 801 mg, T1/2 (apparent terminal elimination half-life), Geometric Mean) of 2.4 h. For the same molecule, the half-life ([4]; 801 mg, T1/2, Mean (SD)) was 2.5 h, the Tmax ([4]; 801 mg, Geometric Mean) was 2.2 h and the Tmax ([4]; 801 mg, Mean (SD)) was 2.2 h. For the same molecule, the Tmax ([4]; 801 mg, Median) was 2 h, the half-life ([4]; T1/2 (apparent terminal elimination half-life), Geometric Mean) was 4.1 h and the half-life ([4]; T1/2, Mean (SD)) was 4 h. For the same molecule, the half-life ([4]; T1/2, Median) was 4 h, the Tmax ([4]; Geometric Mean) was 2.3 h and the Tmax ([4]; Mean (SD)) was 2.6 h. It also gave a Tmax ([4]; Median) of 2 h.

In the case of O=C(O)c1cn(C2CC2)c2cc(N3CCNCC3)c(F)cc2c1=O [Ciprofloxacin, 1-cyclopropyl-6-fluoro-1,4-dihydro-4-oxo-7-(1-piperazinyl)-3-quinolinecarboxylic acid], the “[I]in, u (free-drug concentration of the inhibitor entering the liver)” value ([5]; Ciprofloxacin 250 mg BID) is listed as 52, the “[I]in, u (free-drug concentration of the inhibitor entering the liver)” value ([5]; Ciprofloxacin 500 mg BID) is listed as 52 and the “[I]in, u (free-drug concentration of the inhibitor entering the liver)” value ([5]; ciprofloxacin 750 mg BID) is listed as 78.
